Data set [1] deals with Staphylococcus aureus ATCC 29213. The experiment in a line: In vitro antibacterial evaluation, broth microdilution MIC, reference strain. The format is cell-based. To be noted: Staphylococcus aureus, ATCC29213; S. aureus ATCC 29213.
Data set [2] relates to THP1-Blue™ NF-κB cell line. Kind of data set: In vitro cell viability assay (WST-1). It counts as cell-based. The following applies: Homo sapiens; THP1-Blue NF-κB cells, 24 h incubation, WST-1, mean ± SEM, n = 6; read-out: Tox IC50 ± SEM. Here is the method:
The cytotoxic effect of the tested compounds was specified on THP1-Blue™ NF-κB cell line (Invivogen; San Diego, CA, USA), as described previously. […] The final concentration of DMSO was 0.1% (v/v) in each well. The viability analysis was performed after 24 h incubation with the tested substances using the WST-1 Cell Proliferation Reagent kit (Roche Diagnostics, Basel, Switzerland) according to the manufacturer’s manual. […] The IC50 values were calculated by four-parameter logistic (4PL) analysis from obtained viability curves by GraphPad Prism 8.0.1 (San Diego, CA, USA) software.
A general note: Formazan colour is commonly taken as a measure of viable cells.

The test system of data set [3] is methicillin-resistant Staphylococcus aureus (MRSA) SA 630. Kind of data set: In vitro antibacterial evaluation, broth microdilution MIC, MRSA isolate SA 630. It counts as cell-based. The following applies: clinical isolate MRSA SA 630.
The nature of data set [4]: Lipophilicity determination by RP-TLC. The format is physicochemical. Details: key to RM (MeOH:H2O): RM = log(1/RF - 1), from RP-18 TLC. The following applies: for RM (MeOH:H2O): 72:28 MeOH:H2O; for RM (pH 7.4): 72:28 MeOH:NaOAc buffer (pH 7.4). The procedure: RM values were determined from the RP-18 TLC measurements. […] The volatiles were carefully evaporated, and the plate was developed by MeOH (100%) or MeOH: H2O-HPLC (72:28 v/v) or MeOH: NaOAc buffer, pH 7.4 (72:28 v/v). After drying, the spots were visualized under UV (λ = 365 nm). RM data were obtained from equation: RM = log(1/RF-1). Each experiment was repeated three times.

Data set [5] has as its system Mycobacterium tuberculosis H37Ra/ATCC 25177. The experiment in a line: In vitro antimycobacterial evaluation. The format is cell-based. To be noted: M. tuberculosis H37Ra. From the text:
Isoniazid (Sigma) was used as the standard.

The conditions of data set [6]: RP-HPLC, 72:28 MeOH:H2O.
Data set [7] concerns methicillin-resistant Staphylococcus aureus (MRSA) 63718. The experiment in a line: In vitro antibacterial evaluation, broth microdilution MIC, MRSA isolate 63718. The following applies: clinical isolate MRSA 63718. It counts as cell-based.

Converted amounts (≈) assume the structure as drawn. A value given as a limit tells only on which side of the number the result lay.

Broadly, the MIC is the least concentration at which growth counts as inhibited. As usually defined, the IC50 is the concentration at which inhibition is half-maximal. One may read the chromatographic logD as a lipophilicity value derived from retention on a column.

On to `O=C(/C=C/c1ccccc1)Nc1ccc(Br)c(F)c1` [Compound 9, (2E)-N-(4-Bromo-3-fluorophenyl)-3-phenylprop-2-enamide], for which the MIC in data set [1] is greater than 805 µM; in data set [3] it was 805 µM (≈ 258 µg/mL); in data set [5], greater than 403 µM; in data set [7], greater than 805 µM. The IC50 in data set [2] is greater than 20 µM. Moreover, the “RM (MeOH:H2O)” value in data set [4] was 0.6797. The “RM (pH 7.4)” value in data set [4] amounted to 0.6895. Besides, in data set [4], the “RM (100% MeOH)” value is −0.4081. Further, the chromatographic logD turned out to be 0.541 in “physchem” (pH 6.5) and 0.56 in the data set “physchem” (pH 7.4). The same compound displayed a Logk in data set [6] of 0.5025.
For `O=C(/C=C/c1ccccc1)Nc1ccc(Cl)cc1Br` [Compound 12, (2E)-N-(2-Bromo-4-chlorophenyl)-3-phenylprop-2-enamide], the MIC in data set [1] is greater than 766 µM; in data set [3], greater than 766 µM; in data set [5], greater than 383 µM; in data set [7] it was greater than 766 µM. The IC50 in data set [2] is greater than 20 µM. In addition, the “RM (MeOH:H2O)” value in data set [4] turned out to be 0.6553. For the same compound, the “RM (pH 7.4)” value in data set [4] was found to be 0.6484. The “RM (100% MeOH)” value in data set [4] was −0.4072. For the same compound, the chromatographic logD in the data set “physchem” (pH 6.5) turned out to be 0.586; in the data set “physchem” (pH 7.4), 0.606. In data set [6], this compound yielded a Logk of 0.5476.
`O=C(/C=C/c1ccccc1)Nc1ccc(Br)cc1Br` [Compound 7, (2E)-N-(2,4-Dibromophenyl)-3-phenylprop-2-enamide]: the MIC in data set [1] was greater than 677 µM; in data set [3], greater than 677 µM; in data set [5], greater than 339 µM; in data set [7] it was greater than 677 µM. Moreover, the IC50 in data set [2] is greater than 20 µM. Moreover, the “RM (MeOH:H2O)” value in data set [4] is on record as 0.7331. The “RM (pH 7.4)” value in data set [4] worked out at 0.7295. Besides, the “RM (100% MeOH)” value in data set [4] is recorded as −0.3098. Moreover, the figures for the chromatographic logD in the data set “physchem” (pH 6.5) and in “physchem” (pH 7.4) were 0.652 and 0.67, respectively. Moreover, the Logk in data set [6] turned out to be 0.6152.
Take `O=C(/C=C/c1ccccc1)Nc1ccc(Cl)cc1C(F)(F)F` [Compound 15, (2E)-N-[4-Chloro-2-(trifluoromethyl)phenyl]-3-phenylprop-2-enamide]: the minimum inhibitory concentration (MIC) was greater than 788 µM in data set [1], greater than 788 µM in data set [3], greater than 394 µM in data set [5] and greater than 788 µM in data set [7]. Moreover, the IC50 in data set [2] was greater than 20 µM. In data set [4], the “RM (MeOH:H2O)” value was 0.5305. Moreover, the “RM (pH 7.4)” value in data set [4] is reported as 0.3219. The “RM (100% MeOH)” value in data set [4] is −0.6102. For the same compound, the chromatographic logD in the data set “physchem” (pH 6.5) came to 0.454; in “physchem” (pH 7.4), 0.474. In data set [6], this compound returned a Logk of 0.4113.
In the case of `O=C(/C=C/c1ccccc1)Nc1cc(Cl)c(Cl)c(Cl)c1` [Compound 6, (2E)-3-Phenyl-N-(3,4,5-trichlorophenyl)prop-2-enamide], the MIC in data set [1] is greater than 790 µM; in data set [3], greater than 790 µM; in data set [5], greater than 395 µM; in data set [7] it was greater than 790 µM. Moreover, the IC50 in data set [2] is greater than 20 µM. Also, the “RM (MeOH:H2O)” value in data set [4] came out at 1.0852. Moreover, in data set [4], the “RM (pH 7.4)” value came out at 1.1306. Further, the “RM (100% MeOH)” value in data set [4] is reported as −0.1870. Also, the chromatographic logD in the data set “physchem” (pH 6.5) was 0.99; in the data set “physchem” (pH 7.4), 1.01. In addition, the Logk in data set [6] is recorded as 0.9671.
As to `CC1(C)S[C@@H]2[C@H](NC(=O)[C@H](N)c3ccccc3)C(=O)N2[C@H]1C(=O)O` [AMP, ampicillin, reference compound], the MIC in data set [3] and in data set [7] was 45.8 µM (≈ 16 µg/mL) in each case.
For `O=C(/C=C/c1ccccc1)Nc1cc(F)c(F)c(F)c1` [Compound 3, (2E)-3-Phenyl-N-(3,4,5-trifluorophenyl)prop-2-enamide], the MIC in data set [1] was 462 µM (≈ 128 µg/mL); in data set [3] it was greater than 924 µM; in data set [5] it was greater than 462 µM; in data set [7], greater than 924 µM. In addition, the IC50 in data set [2] was greater than 20 µM. The “RM (MeOH:H2O)” value in data set [4] turned out to be 0.6074. Also, the “RM (pH 7.4)” value in data set [4] worked out at 0.5495. Further, the “RM (100% MeOH)” value in data set [4] is −0.4206. For the same compound, the chromatographic logD is 0.527 in the data set “physchem” (pH 6.5) and 0.549 in the data set “physchem” (pH 7.4). Moreover, the Logk in data set [6] was found to be 0.4893.
On to `O=C(/C=C/c1ccccc1)Nc1ccc([N+](=O)[O-])cc1C(F)(F)F` [Compound 17, (2E)-N-[4-Nitro-2-(trifluoromethyl)phenyl]-3-phenylprop-2-enamide], for which the MIC in data set [1] is greater than 762 µM; in data set [3] it was greater than 762 µM; in data set [5], greater than 381 µM; in data set [7] it was greater than 762 µM. In addition, in data set [2], the IC50 is greater than 20 µM. The “RM (MeOH:H2O)” value in data set [4] was found to be 0.4998. In addition, the “RM (pH 7.4)” value in data set [4] is given as 0.4311. The “RM (100% MeOH)” value in data set [4] is −0.5633. Besides, the chromatographic logD is 0.399 in “physchem” (pH 6.5) and 0.443 in “physchem” (pH 7.4). In data set [6], this compound returned a Logk of 0.3794.
Consider `O=C(/C=C/c1ccccc1)Nc1ccc(Br)c(Cl)c1` [Compound 11, (2E)-N-(4-Bromo-3-chlorophenyl)-3-phenylprop-2-enamide], for which the MIC in data set [1] is greater than 766 µM; in data set [3], 192 µM (≈ 64.6 µg/mL); in data set [5], greater than 383 µM; in data set [7], 192 µM (≈ 64.6 µg/mL). The IC50 in data set [2] came to 6.5 ± 1 µM. The “RM (MeOH:H2O)” value in data set [4] was determined as 0.8388. Moreover, the “RM (pH 7.4)” value in data set [4] is on record as 0.8181. Besides, the “RM (100% MeOH)” value in data set [4] is −0.3376. Further, the chromatographic logD in “physchem” (pH 6.5) stood at 0.691; in “physchem” (pH 7.4) it was 0.713. In data set [6], the Logk turned out to be 0.6611.
Turning to `O=C(/C=C/c1ccccc1)Nc1c(Br)cc(C(F)(F)F)cc1Br` [Compound 19, (2E)-N-[2,6-Dibromo-4-(trifluoromethyl)phenyl]-3-phenylprop-2-enamide], the MIC in data set [1] was greater than 574 µM; in data set [3] it was greater than 574 µM; in data set [5], greater than 287 µM; in data set [7], greater than 574 µM. Moreover, the IC50 in data set [2] is greater than 20 µM. Moreover, the “RM (MeOH:H2O)” value in data set [4] is 0.5301. Besides, in data set [4], the “RM (pH 7.4)” value amounted to 0.3733. The “RM (100% MeOH)” value in data set [4] is −0.5206. In addition, the chromatographic logD in the data set “physchem” (pH 6.5) was 0.473; in “physchem” (pH 7.4), 0.494. The Logk in data set [6] was determined as 0.4321.
With `O=C(/C=C/c1ccccc1)Nc1ccc(Br)cc1C(F)(F)F` [Compound 16, (2E)-N-[4-Bromo-2-(trifluoromethyl)phenyl]-3-phenylprop-2-enamide], the MIC is greater than 696 µM in data set [1], greater than 696 µM in data set [3], greater than 348 µM in data set [5] and greater than 696 µM in data set [7]. The IC50 in data set [2] is greater than 20 µM. In data set [4], the “RM (MeOH:H2O)” value is reported as 0.5730. Further, the “RM (pH 7.4)” value in data set [4] is reported as 0.4273. In addition, in data set [4], the “RM (100% MeOH)” value is reported as −0.5624. Besides, the chromatographic logD turned out to be 0.51 in the data set “physchem” (pH 6.5) and 0.532 in the data set “physchem” (pH 7.4). Further, the Logk in data set [6] came to 0.4683.
For the compound `O=C(/C=C/c1ccccc1)Nc1cc(Cl)ccc1F` [Compound 8, (2E)-N-(5-Chloro-2-fluorophenyl)-3-phenylprop-2-enamide], the MIC in data set [1] is 931 µM (≈ 257 µg/mL); in data set [3], greater than 931 µM; in data set [5], greater than 465 µM; in data set [7], greater than 931 µM. In data set [2], the IC50 is greater than 20 µM. In addition, the “RM (MeOH:H2O)” value in data set [4] came out at 0.5411. For the same compound, the “RM (pH 7.4)” value in data set [4] is recorded as 0.5495. The “RM (100% MeOH)” value in data set [4] was −0.4711. Also, the figures for the chromatographic logD in the data set “physchem” (pH 6.5) and in “physchem” (pH 7.4) were 0.415 and 0.433, respectively. In data set [6], this compound yielded a Logk of 0.3692.
In data set [5], `NNC(=O)c1ccncc1` [INH, isoniazid, reference compound] showed an MIC of 36.6 µM (≈ 5.02 µg/mL).

Source of the values: publication PMC7570544, “Biological Activities and ADMET-Related Properties of Novel Set of Cinnamanilides” (Molecules, 2020).
